# Test results taken from patent US20130266636A1, “METHODS FOR BLOCKING CELL PROLIFERATION AND TREATING DISEASES AND CONDITIONS RESPONSIVE TO CELL GROWTH INHIBITION” (THE REGENTS OF THE UNIVERSITY OF CALIFORNIA, priority 2010, published 2013).
# “Also recorded” adds a separate entry of the source.
# Legend:
# [1] = biological target: CRAF (Homo sapiens, UniProt P04049); experiment: CRAF localization to the mitotic spindle, confocal microscopy of XPA-1 cells; format: cell-based; set-up: total CRAF and total MEK of lysates from XPA-1 cells treated with PD0325901, Sorafenib, L-779450, PLX4720, KG5 or KG1; endogenous in cells; host or cells: XPA-1
# Sequence of CRAF (P04049 whole entry): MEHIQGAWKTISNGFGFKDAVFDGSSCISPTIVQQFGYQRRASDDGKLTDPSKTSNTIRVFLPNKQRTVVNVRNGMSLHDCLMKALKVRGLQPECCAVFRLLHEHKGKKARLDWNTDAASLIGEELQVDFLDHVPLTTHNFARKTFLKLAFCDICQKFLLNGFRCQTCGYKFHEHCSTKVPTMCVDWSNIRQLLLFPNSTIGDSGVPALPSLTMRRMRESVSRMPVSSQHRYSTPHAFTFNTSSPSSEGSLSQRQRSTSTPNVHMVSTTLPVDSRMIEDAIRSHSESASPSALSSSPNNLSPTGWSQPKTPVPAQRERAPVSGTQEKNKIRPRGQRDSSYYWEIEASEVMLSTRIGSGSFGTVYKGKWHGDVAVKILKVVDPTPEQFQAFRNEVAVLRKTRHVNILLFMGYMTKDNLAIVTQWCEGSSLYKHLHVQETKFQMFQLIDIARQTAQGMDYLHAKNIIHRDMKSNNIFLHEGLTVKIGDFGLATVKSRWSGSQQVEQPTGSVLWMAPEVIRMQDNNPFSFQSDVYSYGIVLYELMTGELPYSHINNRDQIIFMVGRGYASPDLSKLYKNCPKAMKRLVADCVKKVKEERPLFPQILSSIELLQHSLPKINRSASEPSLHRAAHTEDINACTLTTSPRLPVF
# Text: FIG. 35. […] Data are representative of three independent experiments. FIG. 35 (b) Confocal microscopy images of human pancreatic XPA-1 and glioblastoma U251 cells during mitosis, stained for phospho-5338 CRAF (in green), α-tubulin (in red) and DNA (TOPRO-3™ in blue). Scale bar, 10 μm. White arrows indicate localization of phospho-S338 CRAF at the mitotic spindle. FIG. 35 (c) Immunoblot analysis of γ-tubulin immunoprecipitates from human colon carcinoma HCT-116 cells asynchronized and synchronized at pro-metaphase. Data are representative of three independent experiments. FIG. 35(d) Immunohistochemical staining of phospho-S338 CRAF in tumor biopsies from breast cancer patients. Scale bar, 10 μm. FIG. 35(e) Confocal microscopy images of XPA-1 cells treated with KG5, sorafenib, ZM336372, L779450 or paclitaxel and stained for CRAF (in green), γ-tubulin (in red) and DNA (TOPRO-3™ in blue). Scale bar, 10 μm. White arrows indicate localization of CRAF at the spindle pole. White circle indicates the absence of CRAF at the spindle pole.
# Cells attached to cover-slips were fixed with cold methanol and permeabilized in PBS containing 0.1% triton for two minutes and blocked for 60 minutes, at room temperature with 2% BSA in PBS. Cells were stained with antibodies to CRAF (Abcam), phospho-serine 338 CRAF (SantaCruz), phospho-serine 338 CRAF (Thermo Scientific), a tubulin (Calbiochem), γ tubulin (Abcam), laminB (SantaCruz), Plk1 (Abcam), phospho-T210 Plk1 (Abcam), or phospho-T288 Aurora A (cell signaling). All primary antibodies were used at 1:100 dilution, for two hours at room temperature. After washing several times with PBS, cells were stained for two hours at room temperature, with secondary antibody specific for mouse, rabbit or goat (Invitrogen), as appropriate, diluted 1:300 and co-incubated with the DNA dye TOPRO-3™ (1:500) (Invitrogen). Samples were mounted in VECTASHIELD™ hard-set mounting media (Vector Laboratories) and imaged on a Nikon ECLIPSE C1™ confocal microscope with a 1.4 NA 60× oil-immersion lens, using minimum pinhole (30 μm). Images were captured using EZ-C1-3.50 imaging software.
# [2] = biological target: T1, phospho-S338 CRAF (Mus musculus, UniProt Q99N57); experiment: Phospho-S338 CRAF staining in orthotopic R40P murine pancreatic cancer tissues; format: in vivo, mice; conditions: systemic KG5, 3 days
# T1 construct: immunofluorescent staining of phospho-S338 CRAF in orthotopic pancreatic cancer tissues untreated or systemically treated with KG5; from tissue; host or cells: orthotopic R40P murine pancreatic tumours in mice
# Text: FIG. 5 illustrates the effect of KG5 on orthotopic R40P murine pancreatic tumor cells after three days, as further discussed in Example 1, below.
# FIG. 5 illustrates an immunofluorescent staining of phospho-S338 CRAF in orthotopic pancreatic cancer tissues untreated or systemically treated with KG5 for 3 days.
# [3] = test system: FAK or Src; conditions: cited from earlier work
# [4] = biological target: Flt-3 (Homo sapiens, UniProt P36888); conditions: cited from earlier work
# Sequence of Flt-3 (P36888 27-993, species assumed): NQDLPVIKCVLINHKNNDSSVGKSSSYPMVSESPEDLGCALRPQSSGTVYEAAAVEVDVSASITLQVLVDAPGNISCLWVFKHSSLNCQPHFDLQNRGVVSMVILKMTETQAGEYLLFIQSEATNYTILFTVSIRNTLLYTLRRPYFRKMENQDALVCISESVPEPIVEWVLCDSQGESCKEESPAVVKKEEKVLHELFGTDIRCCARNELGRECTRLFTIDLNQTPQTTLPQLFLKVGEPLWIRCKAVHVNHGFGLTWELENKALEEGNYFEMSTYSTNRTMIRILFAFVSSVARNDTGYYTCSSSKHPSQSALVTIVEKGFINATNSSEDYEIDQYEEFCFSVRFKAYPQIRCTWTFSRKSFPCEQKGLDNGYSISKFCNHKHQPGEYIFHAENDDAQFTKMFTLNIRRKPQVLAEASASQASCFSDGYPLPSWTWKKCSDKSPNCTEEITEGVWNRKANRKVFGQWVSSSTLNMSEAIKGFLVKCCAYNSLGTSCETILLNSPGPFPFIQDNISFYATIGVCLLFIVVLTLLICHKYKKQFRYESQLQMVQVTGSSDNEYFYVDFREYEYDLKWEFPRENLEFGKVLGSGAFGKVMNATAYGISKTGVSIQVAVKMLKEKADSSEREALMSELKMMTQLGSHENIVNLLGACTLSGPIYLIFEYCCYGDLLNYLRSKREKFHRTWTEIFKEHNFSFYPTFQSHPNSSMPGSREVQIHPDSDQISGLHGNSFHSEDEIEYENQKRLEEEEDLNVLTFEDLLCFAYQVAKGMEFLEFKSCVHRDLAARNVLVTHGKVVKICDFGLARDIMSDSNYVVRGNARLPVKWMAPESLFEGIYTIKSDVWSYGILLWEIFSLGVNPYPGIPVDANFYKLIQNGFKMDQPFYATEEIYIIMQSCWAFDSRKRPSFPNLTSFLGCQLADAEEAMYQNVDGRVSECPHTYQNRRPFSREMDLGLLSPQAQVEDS
# [5] = test system: XPA-1 cells; experiment: Cell cycle analysis, bright field and confocal microscopy of XPA-1 cells; format: cell-based, human
# Description: FIG. 38. […] FIG. 38(a) Bright field images (scale bar, 20 μm), cell cycle analysis and confocal microscopy images (scale bar, 10 μm, laminB in red and DNA in blue) of XPA-1 cells treated for 20 hours with the allosteric RAF inhibitor KG5, the ATP-competitive inhibitor Sorafenib, the MEK inhibitor PD0325901, the control compound KG1 at 5 μM or paclitaxel at 200 nM. Cells were harvested after 20 hours and the cell cycle stage was determined by flow cytometry and confocal microscopy. White arrows indicate cells arrested at pro-metaphase. Scale bars, 10 μm. FIG. 38(b) Representative confocal microscopy images of untreated XPA-1 tumor cells undergoing mitosis (left image) and XPA-1 cell arrested with KG5 at pro-metaphase (right image). Cells were stained with α-tubulin in red and DNA in blue. Scale bar, 10 μm. FIG. 38(c) XPA-1 cells transfected with a vector control or active MEK were treated with 1 μM KG5 for 20 hours or left untreated and the G2/M population was quantified by flow cytometry. Error bars represent s.d. (n=3); * two tailed p value=0.00063 using a Mann Whitney U test. FIG. 38(d) Immunoblot analysis of XPA-1 cells untreated or treated with 1 μM KG5 for 18 hours. Data are representative of four independent experiments. […] Error bars represent s.d. (n=3); * two tailed p value=0.010 using a Mann Whitney U test. Inset, Immunoblot analysis of HCT-116 cells untreated or treated with 1 μM KG5 for 18 hours.
# FIG. 39. […] FIG. 39 graphically illustrates cell cycle analysis of XPA-1 cells treated with the allosteric RAF inhibitor KG5, the microtubule stabilizer paclitaxel, or the ATP-competitive RAF inhibitors sorafenib, L-779450, GW 5074, and ZM-336372. Cells were harvested after 6, 18, 24, 48 and 72 hours and the percentages of cells in G2/M and SubG1 were determined by flow cytometry. Data are representative of three independent experiments.
# Cell cycle analysis was performed by flow cytometry following propidium iodide staining. Briefly, cells were harvested, fixed with ice cold methanol, treated for 45 min with 10 μg/ml of RNase and resuspended in PBS containing 10 μg/ml of PI, and analyzed by flow cytometry. Cell cycle analysis was performed in cells treated for 18 hours with the allosteric RAF inhibitor KG5, the ATP-competitive RAF inhibitors: sorafenib, L-779450, GW5074, and ZM-336372, the MEK inhibitor (PD0325901) at […] concentration or paclitaxel at 100 nM.
# [6] = test system: human lung (A549) carcinoma cell line; experiment: Cell viability assay in A549 cells; format: cell-based
structure (smiles),measurement,setting,value
CSc1nc(N)cc(Oc2ccc(-c3nnc(Nc4cccc(C(F)(F)F)c4)[nH]3)cc2)n1 [KG5],CRAF localization to the mitotic spindle,[1],prevents CRAF recruitment to the mitotic spindle; also recorded: prevented this localization
same,prevents phospho-S338 CRAF recruitment to the mitotic spindle,[1],prevents phospho-S338 CRAF recruitment to the mitotic spindle
same,phospho-S338 CRAF in orthotopic pancreatic cancer tissues,[2],inhibits serine 338 phosphorylation of CRAF
same,integrin-mediated signaling to FAK or Src,[3],no effect
same,inhibition of Flt-3,[4],inhibits
same,rescue of KG5 effect on cell proliferation by ectopic active MEK (G2/M population),"[5]; XPA-1 cells transfected with active MEK, 1 μM KG5, 20 hours",failed to rescue
same,arrest at pro-metaphase (confocal microscopy),"[5]; XPA-1 cells, 20 hours",arrests cells at pro-metaphase
same,cell cycle arrest in G2/M (flow cytometry),"[5]; XPA-1 cells, 20 hours",arrested in G2/M; also recorded: arrests cells in G2/M; also recorded: induces a G2/M arrest followed by cell death
same,cell appearance and mitotic function (bright field images),"[5]; XPA-1 cells, 20 hours, same concentration (5 μM, FIG. 38a)",look arrested in mitosis; also recorded: rounded and arrested in mitosis
same,cell viability,[6]; A549,decrease cell viability
same,EC50,[6]; A549 lung cancer cells,approach picomolar (pM) EC50s
